Where only a bound is given, the exact number is not on record here.

This experiment is described as follows: HCV Replicon Assay and EC50 Determination: HCV replicon assay is based on the luciferase reporter cell line (Huh-luc/neo-ET). This reporter cell line is a human liver carcinoma cell line (Huh-7) stably transfected with an autonomously replicating bicistronic HCV subgenomic RNA replicon (Lohmann et al., 1999, Science, 285, 110-113). Inhibition of HCV RNA replication was monitored through analysis of reporter luciferase activity. Briefly, HCV replicon cells were incubated with inhibitors for 72 hours at 37° C. After the incubation, duplicate plates were treated and incubated in parallel for assessment of cellular toxicity by XTT staining and anti-HCV activity by measurement of luciferase reporter activity. Either human interferon alpha 2B or ribavirin was used as a reference compound. EC50 values were determined using GraFit (Erithaus software) or Excel. On the technique in general: In antiviral work, replicon cells carry a viral genome segment that copies itself.
The term EC50 denotes the midpoint of the concentration-response curve. Turning to `CNC(=O)c1c(-c2ccc(F)cc2)oc2cc(N(CCOCCOCCOCC(=O)NO)S(C)(=O)=O)c(C3CC3)cc12`, the half-maximal effective concentration (EC50) was below 0.1 µM.

As to `CNC(=O)c1c(-c2ccc(F)cc2)oc2cc(N(CCOCCOCc3ccc(C(=O)/C=C(\O)C(=O)O)cc3)S(C)(=O)=O)c(C3CC3)cc12`, the EC50 is below 0.1 µM.

`CNC(=O)c1c(-c2ccc(F)cc2)oc2cc(N(CC(=O)NC(C)C(=O)NCc3cccc(C(=O)/C=C(\O)C(=O)O)c3)S(C)(=O)=O)c(C3CC3)cc12` (centres undefined) showed a 50% effective concentration (EC50) of 0.1 to 1 µM.

`CNC(=O)c1c(-c2ccc(F)cc2)oc2cc(N(CCOCCOCc3ccc(OC)c(C(=O)O)c3)S(C)(=O)=O)c(C3CC3)cc12` came in with an EC50 of 0.1 to 1 µM.

`CNC(=O)c1c(-c2ccc(F)cc2)oc2cc(N(CC(=O)NC3(C(=O)NCc4cccc(C(=O)/C=C(\O)C(=O)O)c4)CCCC3)S(C)(=O)=O)c(C3CC3)cc12` had an EC50 of 0.1 to 1 µM.

For the molecule `CNC(=O)c1c(-c2ccc(F)cc2)oc2cc(N(CCOCCOCc3cccc(C(=O)/C=C(\O)C(=O)O)c3)S(C)(=O)=O)c(C3CC3)cc12`, the 50% effective concentration (EC50) was below 0.1 µM.

`CNC(=O)c1c(-c2ccc(F)cc2)oc2cc(N(CCCCOCCc3ccc(C(=O)O)cc3)S(C)(=O)=O)c(C3CC3)cc12`: the EC50 was below 0.1 µM.

`CNC(=O)c1c(-c2ccc(F)cc2)oc2cc(N(CCOCCOCCOC(C(=O)O)c3ccccc3)S(C)(=O)=O)c(C3CC3)cc12` (centres undefined) had an EC50 of 0.1 to 1 µM.

With `CNC(=O)c1c(-c2ccc(F)cc2)oc2cc(N(CCOCCCOCc3cccc(C(=O)/C=C(\O)C(=O)O)c3)S(C)(=O)=O)c(C3CC3)cc12`, the concentration giving a half-maximal response (EC50) was below 0.1 µM.

`CNC(=O)c1c(-c2ccc(F)cc2)oc2cc(N(CCOCCOCc3ccccc3C(=O)O)S(C)(=O)=O)c(C3CC3)cc12` returned a half-maximal effective concentration (EC50) below 0.1 µM.

Consider `CNC(=O)c1c(-c2ccc(F)cc2)oc2cc(N(CCOCCOCCOC(C)C(=O)O)S(C)(=O)=O)c(C3CC3)cc12` (centres undefined), for which the EC50 is below 0.1 µM.

With `CNC(=O)c1c(-c2ccc(F)cc2)oc2cc(N(CCOCCOCc3ccc(F)c(C(=O)O)c3)S(C)(=O)=O)c(C3CC3)cc12`, the EC50 was below 0.1 µM.

`CNC(=O)c1c(-c2ccc(F)cc2)oc2cc(N(CCOCCOCCOCCO)S(C)(=O)=O)c(C3CC3)cc12` returned an EC50 of 0.1 to 1 µM.

For the molecule `CNC(=O)c1c(-c2ccc(F)cc2)oc2cc(N(CCCCCOCc3ccc(C(=O)O)cc3)S(C)(=O)=O)c(C3CC3)cc12`, the concentration for a half-maximal effect (EC50) is below 0.1 µM.

Take `CNC(=O)c1c(-c2ccc(F)cc2)oc2cc(N(CCOCCCc3cccc(C(=O)/C=C(\O)C(=O)O)c3)S(C)(=O)=O)c(C3CC3)cc12`: the concentration for a half-maximal effect (EC50) is below 0.1 µM.

As for `CNC(=O)c1c(-c2ccc(F)cc2)oc2cc(N(CCOCCOCc3cccc(C(C)=O)c3)S(C)(=O)=O)c(C3CC3)cc12`, the half-maximal effective concentration (EC50) was below 0.1 µM.

Regarding `CNC(=O)c1c(-c2ccc(F)cc2)oc2cc(N(CCOCCOCc3cccc(C(=O)O)c3)S(C)(=O)=O)c(C3CC3)cc12`, the concentration for a half-maximal effect (EC50) is below 0.1 µM.

`CNC(=O)c1c(-c2ccc(F)cc2)oc2cc(N(CCOCCOCc3ccc(C(=O)O)cc3)S(C)(=O)=O)c(C3CC3)cc12` came in with an EC50 of 0.1 to 1 µM.

As for `CNC(=O)c1c(-c2ccc(F)cc2)oc2cc(N(CCOCCOCCOCC(=O)O)S(C)(=O)=O)c(C3CC3)cc12`, the concentration for a half-maximal effect (EC50) lay in the range of 0.1 to 1 µM.

`CNC(=O)c1c(-c2ccc(F)cc2)oc2cc(N(CC(=O)NC(C)(C)C(=O)NCc3cccc(C(=O)/C=C(\O)C(=O)O)c3)S(C)(=O)=O)c(C3CC3)cc12` came in with a concentration for a half-maximal effect (EC50) of 0.1 to 1 µM.

Turning to `CNC(=O)c1c(-c2ccc(F)cc2)oc2cc(N(CCCCCCCc3ccc(C(=O)O)cc3)S(C)(=O)=O)c(C3CC3)cc12`, the concentration giving a half-maximal response (EC50) was below 0.1 µM.

Molecule `CNC(=O)c1c(-c2ccc(F)cc2)oc2cc(N(CCOC(=O)CNC(=O)CCCC(=O)O)S(C)(=O)=O)c(C3CC3)cc12` showed an EC50 of 0.1 to 1 µM.

Regarding `CNC(=O)c1c(-c2ccc(F)cc2)oc2cc(N(CCOCCOCCOCCOCCOCCOCc3cccc(C(=O)/C=C(\O)C(=O)O)c3)S(C)(=O)=O)c(C3CC3)cc12`, the concentration giving a half-maximal response (EC50) is 0.1 to 1 µM.

`CNC(=O)c1c(-c2ccc(F)cc2)oc2cc(N(CC(=O)NCC(=O)NCc3cccc(C(=O)/C=C(\O)C(=O)O)c3)S(C)(=O)=O)c(C3CC3)cc12` showed an EC50 of 0.1 to 1 µM.

For the origin of these results see ChEMBL document CHEMBL5728324, “Inhibitors of Hepatitis C virus polymerase” (2021).
